Data taken from the Kinase Knowledgebase extract (Sharma et al. 2016).

Assays:
Test in all cases: Enzyme Assay
PIK3CA (human) = PIK3CA (human) (UniProt P42336)
PIK3CB (Human) = PIK3CB (Human) (UniProt P42338)
PIK3CD (Human) = PIK3CD (Human) (UniProt O00329)
PIK3CG (human) = PIK3CG (human) (UniProt P48736)
Chain of PIK3CG (human) (P48736 whole entry, looked up): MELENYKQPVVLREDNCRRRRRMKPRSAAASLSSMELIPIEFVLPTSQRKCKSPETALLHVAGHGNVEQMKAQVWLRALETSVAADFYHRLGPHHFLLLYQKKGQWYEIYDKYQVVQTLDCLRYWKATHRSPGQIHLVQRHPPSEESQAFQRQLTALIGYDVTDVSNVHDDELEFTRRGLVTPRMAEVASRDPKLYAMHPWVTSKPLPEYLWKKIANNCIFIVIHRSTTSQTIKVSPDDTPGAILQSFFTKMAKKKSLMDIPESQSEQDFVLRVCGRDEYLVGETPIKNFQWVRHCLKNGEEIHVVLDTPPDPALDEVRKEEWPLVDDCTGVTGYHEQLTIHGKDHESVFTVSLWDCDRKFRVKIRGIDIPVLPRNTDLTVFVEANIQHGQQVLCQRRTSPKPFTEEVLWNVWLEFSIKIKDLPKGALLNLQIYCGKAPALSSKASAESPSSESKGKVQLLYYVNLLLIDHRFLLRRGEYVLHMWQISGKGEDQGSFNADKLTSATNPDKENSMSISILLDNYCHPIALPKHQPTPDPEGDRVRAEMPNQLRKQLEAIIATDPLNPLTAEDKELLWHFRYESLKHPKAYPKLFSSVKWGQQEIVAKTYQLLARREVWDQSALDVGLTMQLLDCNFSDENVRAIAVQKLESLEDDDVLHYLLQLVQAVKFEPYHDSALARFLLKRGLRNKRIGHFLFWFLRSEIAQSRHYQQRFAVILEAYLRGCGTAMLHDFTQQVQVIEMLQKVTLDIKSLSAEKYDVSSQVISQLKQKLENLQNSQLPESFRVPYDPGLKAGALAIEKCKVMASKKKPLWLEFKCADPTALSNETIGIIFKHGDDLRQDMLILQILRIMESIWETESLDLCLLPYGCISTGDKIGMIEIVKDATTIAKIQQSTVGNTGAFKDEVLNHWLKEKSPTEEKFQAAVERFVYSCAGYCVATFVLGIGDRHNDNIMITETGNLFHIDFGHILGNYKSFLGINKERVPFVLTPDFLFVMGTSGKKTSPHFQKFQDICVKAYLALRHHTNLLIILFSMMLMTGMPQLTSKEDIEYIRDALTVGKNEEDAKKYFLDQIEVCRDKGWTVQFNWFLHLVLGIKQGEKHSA

Chain of PIK3CD (Human) (O00329 whole entry, looked up): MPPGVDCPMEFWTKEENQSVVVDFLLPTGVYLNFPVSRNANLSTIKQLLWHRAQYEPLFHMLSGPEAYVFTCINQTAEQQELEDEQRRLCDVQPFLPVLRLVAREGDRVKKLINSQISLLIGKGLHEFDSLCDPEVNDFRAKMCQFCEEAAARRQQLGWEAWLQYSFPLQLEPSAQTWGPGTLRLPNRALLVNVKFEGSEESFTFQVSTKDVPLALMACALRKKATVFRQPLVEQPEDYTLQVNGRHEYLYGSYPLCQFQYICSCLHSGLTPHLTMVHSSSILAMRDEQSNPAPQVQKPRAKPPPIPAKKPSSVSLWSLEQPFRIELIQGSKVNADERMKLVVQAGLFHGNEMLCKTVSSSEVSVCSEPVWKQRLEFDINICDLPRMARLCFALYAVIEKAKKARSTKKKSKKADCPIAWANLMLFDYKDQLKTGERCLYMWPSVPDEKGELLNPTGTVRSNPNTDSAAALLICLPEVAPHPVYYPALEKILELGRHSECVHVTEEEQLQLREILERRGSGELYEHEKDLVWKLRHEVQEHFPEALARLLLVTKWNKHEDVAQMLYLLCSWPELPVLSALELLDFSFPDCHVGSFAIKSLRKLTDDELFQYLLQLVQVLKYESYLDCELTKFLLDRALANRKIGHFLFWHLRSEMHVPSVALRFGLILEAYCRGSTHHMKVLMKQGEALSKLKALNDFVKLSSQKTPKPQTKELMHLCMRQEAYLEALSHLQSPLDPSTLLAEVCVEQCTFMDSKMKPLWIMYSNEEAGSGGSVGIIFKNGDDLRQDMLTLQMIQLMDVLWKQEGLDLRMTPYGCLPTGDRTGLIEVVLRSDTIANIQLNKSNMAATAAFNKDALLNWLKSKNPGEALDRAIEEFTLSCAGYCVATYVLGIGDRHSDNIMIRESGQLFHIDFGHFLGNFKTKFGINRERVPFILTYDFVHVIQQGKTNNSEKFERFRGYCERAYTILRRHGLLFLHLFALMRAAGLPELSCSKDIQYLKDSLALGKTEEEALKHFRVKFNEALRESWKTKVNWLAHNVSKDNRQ
Chain of PIK3CA (human) (P42336 whole entry, looked up): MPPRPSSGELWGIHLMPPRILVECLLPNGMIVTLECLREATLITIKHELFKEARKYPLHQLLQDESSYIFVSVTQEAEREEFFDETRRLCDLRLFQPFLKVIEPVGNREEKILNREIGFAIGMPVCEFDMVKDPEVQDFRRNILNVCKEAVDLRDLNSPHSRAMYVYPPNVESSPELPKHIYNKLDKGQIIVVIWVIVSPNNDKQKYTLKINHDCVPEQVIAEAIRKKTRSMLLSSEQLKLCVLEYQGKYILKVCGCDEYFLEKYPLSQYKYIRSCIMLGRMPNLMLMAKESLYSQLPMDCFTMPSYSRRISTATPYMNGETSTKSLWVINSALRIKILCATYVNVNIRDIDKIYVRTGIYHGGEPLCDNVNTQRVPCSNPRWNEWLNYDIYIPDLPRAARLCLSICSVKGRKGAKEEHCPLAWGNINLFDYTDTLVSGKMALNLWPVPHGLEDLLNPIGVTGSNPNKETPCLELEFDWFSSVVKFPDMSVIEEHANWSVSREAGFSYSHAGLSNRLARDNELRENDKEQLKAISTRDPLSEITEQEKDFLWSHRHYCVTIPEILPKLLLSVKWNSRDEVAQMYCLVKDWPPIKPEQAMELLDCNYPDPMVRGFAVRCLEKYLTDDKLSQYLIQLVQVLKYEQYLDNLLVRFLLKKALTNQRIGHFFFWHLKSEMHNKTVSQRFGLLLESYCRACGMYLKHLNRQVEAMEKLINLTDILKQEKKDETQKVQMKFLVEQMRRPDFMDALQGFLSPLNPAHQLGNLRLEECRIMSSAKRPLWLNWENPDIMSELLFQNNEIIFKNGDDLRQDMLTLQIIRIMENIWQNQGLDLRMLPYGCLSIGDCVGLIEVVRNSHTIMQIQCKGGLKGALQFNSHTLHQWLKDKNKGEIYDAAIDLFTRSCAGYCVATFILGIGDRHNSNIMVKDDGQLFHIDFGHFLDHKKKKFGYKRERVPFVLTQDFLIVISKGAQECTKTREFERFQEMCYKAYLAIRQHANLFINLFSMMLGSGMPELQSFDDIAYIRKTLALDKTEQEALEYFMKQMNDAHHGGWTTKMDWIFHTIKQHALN
Chain of PIK3CB (Human) (P42338 whole entry, looked up): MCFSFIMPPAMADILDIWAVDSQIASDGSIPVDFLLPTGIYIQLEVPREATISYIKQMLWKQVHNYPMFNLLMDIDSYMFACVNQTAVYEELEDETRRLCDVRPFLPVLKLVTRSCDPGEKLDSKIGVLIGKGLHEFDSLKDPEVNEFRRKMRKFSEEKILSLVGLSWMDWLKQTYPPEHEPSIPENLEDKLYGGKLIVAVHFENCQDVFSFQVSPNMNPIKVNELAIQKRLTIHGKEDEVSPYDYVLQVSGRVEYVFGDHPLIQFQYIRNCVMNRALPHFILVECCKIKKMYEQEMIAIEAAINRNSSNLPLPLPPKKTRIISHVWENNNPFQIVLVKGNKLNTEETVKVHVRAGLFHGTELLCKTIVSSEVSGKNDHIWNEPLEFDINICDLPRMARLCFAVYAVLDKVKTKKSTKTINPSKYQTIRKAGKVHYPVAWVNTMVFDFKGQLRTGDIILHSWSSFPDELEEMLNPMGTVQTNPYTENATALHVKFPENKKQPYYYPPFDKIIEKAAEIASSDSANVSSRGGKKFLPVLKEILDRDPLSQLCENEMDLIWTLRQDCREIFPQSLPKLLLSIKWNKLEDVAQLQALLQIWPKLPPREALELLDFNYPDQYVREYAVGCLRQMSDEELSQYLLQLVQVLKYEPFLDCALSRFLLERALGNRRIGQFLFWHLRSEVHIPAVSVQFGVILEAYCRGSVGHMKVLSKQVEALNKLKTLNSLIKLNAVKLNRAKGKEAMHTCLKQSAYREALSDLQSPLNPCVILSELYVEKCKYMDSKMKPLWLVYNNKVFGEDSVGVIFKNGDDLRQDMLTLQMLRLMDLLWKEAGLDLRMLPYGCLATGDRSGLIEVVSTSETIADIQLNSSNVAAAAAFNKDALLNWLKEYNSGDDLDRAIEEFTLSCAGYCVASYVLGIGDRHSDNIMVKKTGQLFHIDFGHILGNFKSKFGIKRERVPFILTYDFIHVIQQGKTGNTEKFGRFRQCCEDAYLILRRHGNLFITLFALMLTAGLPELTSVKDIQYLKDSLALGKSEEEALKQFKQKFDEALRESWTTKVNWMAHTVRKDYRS

| SMILES | IC50 (PIK3CA (human)) [nM] | IC50 (PIK3CB (Human)) [nM] | IC50 (PIK3CD (Human)) [nM] | IC50 (PIK3CG (human)) [nM] |
| --- | --- | --- | --- | --- |
| C[C@H](Nc1ncnc2scnc12)c1cc2cccc(-c3ccc(C(F)(F)F)nc3)c2c(=O)n1-c1ccccc1 | > 10000 | > 10000 | < 100 | 100 to 1000 |
| COc1cncc(-c2cccc3cc([C@H](C)Nc4ncnc5scnc45)n(-c4ccccc4)c(=O)c23)c1 | < 100 | 100 to 1000 | < 100 | < 100 |
| Cc1nc2c(N[C@@H](C)c3cc4cccc(Cl)c4c(=O)n3-c3ccccc3)ncnc2s1 | > 10000 | > 10000 | > 10000 | > 10000 |
| C[C@H](Nc1ncnc2scnc12)c1cc2cccc(Cl)c2c(=O)n1-c1cccc(F)c1 | 100 to 1000 | < 100 | < 100 | < 100 |
| C[C@H](Nc1ncnc2scnc12)c1cc2cccc(Cl)c2c(=O)n1CCN1CCCC1 | > 10000 | 100 to 1000 | < 100 | > 10000 |
| C[C@H](Nc1ncnc2scnc12)c1cc2cccc(-c3cn(C)cn3)c2c(=O)n1-c1ccccc1 | > 10000 | > 10000 | 100 to 1000 | > 10000 |
| C[C@H](Nc1ncnc2scnc12)c1cc2cccc(-c3ccccn3)c2c(=O)n1-c1ccccc1 | > 10000 | > 10000 | < 100 | 100 to 1000 |
| COc1cncc(-c2cccc3cc([C@H](C)Nc4ncnc5scnc45)n(C4CC4)c(=O)c23)c1 | 100 to 1000 | 100 to 1000 | < 100 | 100 to 1000 |
| C[C@H](Nc1ncnc2scnc12)c1cc2cccc(-c3cnc4nccnc4c3)c2c(=O)n1-c1ccccc1 | > 10000 | > 10000 | < 100 | 100 to 1000 |
| C[C@H](Nc1ncnc2scnc12)c1cc2cccc(-c3cnc4[nH]ccc4c3)c2c(=O)n1-c1ccccc1 | 100 to 1000 | 100 to 1000 | < 100 | < 100 |
| C[C@H](Nc1ncnc2scnc12)c1cc2cccc(Cl)c2c(=O)n1-c1ccccc1 | 100 to 1000 | < 100 | < 100 | < 100 |
| C[C@H](Nc1ncnc2scnc12)c1cc2cccc(Cl)c2c(=O)n1C1CC1 | 100 to 1000 | < 100 | < 100 | < 100 |
| C[C@H](Nc1ncnc2scnc12)c1cc2cccc(-c3ccc(N)nc3)c2c(=O)n1C1CC1 | 100 to 1000 | 100 to 1000 | < 100 | < 100 |
| C[C@H](Nc1nc(N)nc2scnc12)c1cc2cccc(-c3cnn(C)c3)c2c(=O)n1-c1ccccc1 | 100 to 1000 | 100 to 1000 | < 100 | < 100 |
| C[C@H](Nc1ncnc2scnc12)c1cc2cccc(-c3cnn(C)c3)c2c(=O)n1C1CC1 | 100 to 1000 | 100 to 1000 | < 100 | < 100 |
| C[C@H](Nc1ncnc2scnc12)c1cc2cccc(C(=O)N3CCOCC3)c2c(=O)n1-c1ccccc1 | > 10000 | > 10000 | 100 to 1000 |  |
| C[C@H](Nc1ncnc2scnc12)c1cc2cccc(C(=O)N(C)C)c2c(=O)n1-c1ccccc1 | > 10000 | > 10000 | 100 to 1000 | > 10000 |
| C[C@H](Nc1ccnc2scnc12)c1cc2cccc(Cl)c2c(=O)n1-c1ccccc1 | 100 to 1000 | 100 to 1000 | < 100 | < 100 |
| Cc1nc2c(N[C@@H](C)c3cc4cccc(Cl)c4c(=O)n3-c3cccc(F)c3)ncnc2s1 | > 10000 | > 10000 |  | > 10000 |
| CNC(=O)c1cccc2cc([C@H](C)Nc3ncnc4scnc34)n(-c3ccccc3)c(=O)c12 | > 10000 | > 10000 | 100 to 1000 | > 10000 |
| C[C@H](Nc1ncnc2scnc12)c1cc2cccc(-c3cnc4ccccc4c3)c2c(=O)n1-c1ccccc1 | 100 to 1000 | 100 to 1000 | < 100 | < 100 |
